These results are taken from publication PMC4906375, “Contribution of Amphipathicity and Hydrophobicity to the Antimicrobial Activity and Cytotoxicity of β-Hairpin Peptides” (ACS Infectious Diseases, 2016).

The test system of series [1] is K. pneumoniae ATCC 700603 (MDR). It is filed as cell-based, Klebsiella pneumoniae. To be noted: n = 4.
Series [2] has as its system K. pneumoniae BAA 2146 (NDM-1 pos). Type of series: cell-based, Klebsiella pneumoniae. To be noted: n = 4.
In series [3] the test system is C. neoformans ATCC 208821. As to the kind of experiment: microbe, parasite or virus in culture. It is filed as cell-based, Cryptococcus neoformans. The procedure: Both antibacterial and antifungal MIC assays were performed by a broth microdilution plate based method as per CLSI guidelines for antimicrobial susceptibility testing.[53],[54] […] Full assay details are included in the Supporting Information with a full list of strains tested in Table S1.
Antibacterial assay (Minimum Inhibitory Concentration [MIC]).
MIC assay was performed by a broth microdilution plate based method as per CLSI guidelines for antimicrobial susceptibility testing of aerobic bacteria.1 Compounds were prepared at 1.28 mg/mL solution in water. The tested strains, Table S1, were cultured in Luria broth (LB) (In Vitro Technologies, USB75852), at 37 °C overnight. A sample of culture was then diluted 40Pfold in fresh Muller Hinton broth (MHB) (Bacto laboratories, 211443) and incubated at 37 °C for 1.5P2 h. The compounds were serially diluted twoPfold across the wells, with compound concentrations ranging from 0.015 µg/mL to 512 µg/mL, plated in duplicate. The resultant midPlog phase cultures were diluted to the final concentration of 1×10^6 CFU/mL, then 50 µL was added to each well of the compoundP containing 96Pwell plates (Corning 3641, NonPbinding Surface [NBS]), giving a final compound concentration range of 0.008 µg/mL to 256 µg/mL and 5x10^5 CFU/mL. All the plates were covered and incubated at 37 °C for 18 h. MICs were determined visually, being defined as the lowest concentration showing no visible growth. Resazurin was added at 0.001% final concentration to each well and incubated for 2 h before MICs were rePread for confirmation using the colour change from blue to pink to indicate wells containing viable cells. The resazurin assay was added in some wells where some form of precipitate was present in otherwise clear wells, making it difficult to ascertain which wells had visible […]
Antifungal assay (Minimum Inhibitory Concentration [MIC]). MIC assay was performed by a broth microdilution plate based method as per CLSI guidelines for antimicrobial susceptibility testing.2 Fungi strains, Table S1, were cultured for 3 days on Yeast ExtractPPeptone Dextrose (YPD) (SigmaPAldrich, Y1500) agar at 30 °C. A yeast suspension of 1x10^6 to 5x10^6 CFU/mL was prepared from five colonies. These stock suspensions were diluted with Yeast Nitrogen Base (YNB) (Becton Dickinson, 233520) broth to a final concentration of 2.5 ×10^3 CFU/mL. All samples, compounds and standards were plated in 96Pwell plates (Corning 3641, NonPbinding Surface [NBS]), by adding 10 µL of 1.28 mg/mL stock solution to each well and 90 µL of media. Then, the samples were serial diluted (1:2) in 12 concentrations across the plate. The standard antifungal ranged from 256 […]
µg/mL to 0.12 µg/mL and compounds from 128 µg/mL to 0.06 µg/mL with final volumes of 50 µL per well, plated in duplicate. Then, 50 µL of the fungi suspension that was previously prepared in YNB broth to the final concentration of 2.5×10^3 CFU/mL, was added to each well of the compoundPcontaining plates, giving a final standard compound concentration range of 128 µg/mL to 0.06 µg/mL and tested compound from 64 µg/mL to 0.03 µg/mL. Plates were covered and incubated at 35 °C for 24 h. Candida albicans MICs were determined by measuring the absorbance at OD530. For Cryptococcus neoformans 10 µL of 0.06 % resazurin were added to the 24 h incubated plates. Then, these plates were incubated for another 3 h.
Cryptococcus neoformans MICs were determined by measuring the absorbance at OD570P600. […]

Series [4] deals with human erythrocytes. The following applies: red cells of human, 3 h.
Series [5] has as its system human erythrocytes. Briefly: Hemolysis assay. The following applies: 3 h, relative to 100% hemolysis by 1% Triton X-100.

≈ marks a conversion by molar mass, not a printed value. Read-outs that look alike come from different tables or passages of the source. Residues, ends and D or L forms follow the SMILES beside them.

For `CC(C)[C@@H]1NC(=O)CNC(=O)[C@H](CC(N)=O)NC(=O)[C@H](CCCNC(=N)N)NC(=O)[C@H](Cc2ccc(O)cc2)NC(=O)[C@H](C(C)C)NC(=O)[C@@H]2CSSC[C@H](NC(=O)[C@H](C(C)C)NC(=O)[C@H](CCCNC(=N)N)NC1=O)C(=O)N[C@@H](Cc1ccc(O)cc1)C(=O)N[C@@H](CCCNC(=N)N)C(=O)N[C@@H](CCCNC(=N)N)C(=O)N[C@H](C(=O)N[C@@H](CC(N)=O)C(=O)O)CSSC[C@H](NC(=O)[C@H](Cc1ccccc1)NC(=O)CN)C(=O)N[C@@H](Cc1c[nH]c3ccccc13)C(=O)N[C@@H](Cc1ccc(O)cc1)C(=O)N[C@@H](C(C)C)C(=O)N2` [arenicin-3] (HELM PEPTIDE1{G.F.C.W.Y.V.C.V.Y.R.N.G.V.R.V.C.Y.R.R.C.N}$PEPTIDE1,PEPTIDE1,3:R3-20:R3|PEPTIDE1,PEPTIDE1,7:R3-16:R3$$$V2.0), the MIC in series [1] is 4 µg/mL (≈ 1.53 µM); in series [2] it was 4 µg/mL (≈ 1.53 µM); in series [3] (ATCC 208821), 8 µg/mL (≈ 3.06 µM). Also, the “hemolysis (%) at 300 μg/mL” value in series [4] is given as 4.4 ± 1.1%.
On to `CC(C)[C@@H]1NC(=O)[C@H](CCCNC(=N)N)NC(=O)[C@H](Cc2ccccc2)NC(=O)[C@@H](NC(=O)[C@H](Cc2c[nH]c3ccccc23)NC(=O)[C@H](CCCNC(=N)N)NC(=O)[C@@H](N)CCCNC(=N)N)CSSC[C@@H](C(=O)N[C@@H](CCCNC(=N)N)C(N)=O)NC(=O)[C@H](CCCCN)NC(=O)[C@H](CCCNC(=N)N)NC(=O)[C@H](Cc2ccc(O)cc2)NC(=O)[C@@H]2CSSC[C@H](NC1=O)C(=O)N[C@@H](Cc1ccc(O)cc1)C(=O)N[C@@H](CCCNC(=N)N)C(=O)NCC(=O)N[C@@H](Cc1ccccc1)C(=O)N2` [polyphemusin-1] (HELM PEPTIDE1{R.R.W.C.F.R.V.C.Y.R.G.F.C.Y.R.K.C.R.[am]}$PEPTIDE1,PEPTIDE1,4:R3-17:R3|PEPTIDE1,PEPTIDE1,8:R3-13:R3$$$V2.0), for which the MIC in series [1] was found to be 1 µg/mL (≈ 0.407 µM); in series [2], 2 µg/mL (≈ 0.815 µM); in series [3] (ATCC 208821) it was 0.06 µg/mL (≈ 0.0244 µM).
As for `[H][C@]12CSSC[C@]([H])(NC(=O)[C@]([H])([C@@H](C)CC)NC(=O)CNC(=O)[C@H](CCCNC(=N)N)NC(=O)[C@H](Cc3ccc(O)cc3)NC1=O)C(=O)N[C@@H](Cc1ccc(O)cc1)C(=O)N[C@@H](CCCNC(=N)N)C(=O)N[C@@H](CCCNC(=N)N)C(=O)N[C@H](C(=O)N[C@@H](CCCNC(=N)N)C(N)=O)CSSC[C@H](NC(=O)[C@H](Cc1c[nH]c3ccccc13)NC(=O)[C@@H](N)CCCCN)C(=O)N[C@@H](Cc1ccccc1)C(=O)N[C@@H](CCCNC(=N)N)C(=O)N[C@@H](C(C)C)C(=O)N2` [tachyplesin-1] (HELM PEPTIDE1{K.W.C.F.R.V.C.Y.R.G.I.C.Y.R.R.C.R.[am]}$PEPTIDE1,PEPTIDE1,3:R3-16:R3|PEPTIDE1,PEPTIDE1,7:R3-12:R3$$$V2.0), the MIC in series [1] turned out to be 0.25 µg/mL (≈ 0.11 µM); in series [2], 0.25 µg/mL (≈ 0.11 µM); in series [3] (ATCC 208821) it was 0.125 µg/mL (≈ 0.0552 µM). The “hemolysis (%) at 300 μg/mL” value in series [4] is recorded as 27.8 ± 3.9%.
`CC[C@H](C)[C@H](NC(=O)[C@@H](NC(=O)[C@@H]1CCCN1C(=O)[C@@H](NC(=O)[C@@H]1CCCN1C(=O)[C@H](CCCCN)NC(=O)[C@H](CCCCN)NC(=O)[C@H](CO)NC(=O)CN)C(C)C)[C@@H](C)CC)C(=O)N[C@@H](Cc1ccc(O)cc1)C(=O)N[C@H]1CSSC[C@@H](C(=O)N[C@@H](CCC(N)=O)C(=O)N[C@@H](CCCNC(=N)N)C(=O)N[C@@H](CCSC)C(N)=O)NC(=O)[C@H](CCCCN)NC(=O)CNC(=O)[C@H]([C@@H](C)O)NC(=O)[C@H](CCCNC(=N)N)NC(=O)[C@H](CCCNC(=N)N)NC(=O)[C@H](CC(N)=O)NC1=O` [thanatin]: the MIC was determined as 64 µg/mL (≈ 26.3 µM) in series [1]; 256 µg/mL (≈ 105 µM) in series [2]; 64 µg/mL (≈ 26.3 µM) in series [3] (C. neoformans ATCC 208821, n = 4). Besides, the “hemolysis (%) at 300 μg/mL” value in series [5] was “nonhemolytic”.
